≈ marks a conversion by molar mass, not a printed value. Like-named read-outs stand apart in the source and are kept apart here.
Assays:
[1] = system: A. fumigatus CEA10; experiment: Fatty acid profile of 24-hour biofilms by GC-MS; assay type: cell-based, Aspergillus fumigatus; conditions: CEA10 24-hour biofilm; MBX-7591 0.58 µg/mL, voriconazole 0.0625 µg/mL
[2] = system: Candida albicans; experiment: CLSI-based microbroth dilution MIC for yeast; assay type: cell-based
[3] = biological target: T1, CYP3A4 (Homo sapiens, UniProt P08684); experiment: CYP450 inhibition; assay type: in vitro ADME; conditions: Human Cytochrome P450 kit (BD Gentest), read-out: Human CYP3A4 inhibition (%INH at 10 µM)
T1 construct: purchased BD Gentest Corp, Woburn, MA, USA
T1 sequence (P08684 whole entry): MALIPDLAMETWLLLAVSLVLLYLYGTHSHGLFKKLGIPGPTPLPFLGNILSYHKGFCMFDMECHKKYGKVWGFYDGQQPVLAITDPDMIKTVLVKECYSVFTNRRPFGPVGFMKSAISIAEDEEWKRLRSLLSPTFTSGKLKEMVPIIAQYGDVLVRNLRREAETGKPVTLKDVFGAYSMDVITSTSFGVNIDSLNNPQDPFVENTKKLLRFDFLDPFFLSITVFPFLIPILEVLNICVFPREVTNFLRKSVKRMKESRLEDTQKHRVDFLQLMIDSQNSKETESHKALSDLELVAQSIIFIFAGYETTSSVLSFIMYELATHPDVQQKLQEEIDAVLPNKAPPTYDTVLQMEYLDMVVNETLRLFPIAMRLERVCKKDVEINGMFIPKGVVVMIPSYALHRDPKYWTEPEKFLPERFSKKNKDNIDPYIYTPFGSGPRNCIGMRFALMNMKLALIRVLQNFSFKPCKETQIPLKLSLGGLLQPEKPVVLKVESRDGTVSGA
Description: Inhibition of the CYP450 enzyme CYP3A4 by each compound at a final concentration of 10 µM was measured using a commercially available Human Cytochrome P450 kit (BD Gentest Corp, Woburn, MA, USA) according to the manufacturer’s instructions.

[4] = system: HeLa cells (ATCC CCL-2); experiment: Mammalian cell cytotoxicity (CC50); assay type: cell-based
Description: (§1) The half-maximal cytotoxic concentration (CC50) of each compound against HeLa cells (ATCC CCL-2) was measured as previously described ([50]). Each assay comprised three technical replicates, and each assay was repeated at least once. The mean values for each biological replicate were averaged, and the CC50 was determined using a four-parameter nonlinear curve fitting algorithm (GraphPad Prism). The average of the CC50s from two biological replicates was calculated and reported.

[5] = Mammalian cell cytotoxicity (CC50); assay type: cell-based; conditions: human, HeLa cells (ATCC CCL-2)
Description: as §1

[6] = system: Scedosporium spp.; experiment: CLSI-based microbroth dilution MIC, spectrum of activity; assay type: cell-based
[7] = system: P. variotii; experiment: microbe, parasite or virus in culture; assay type: cell-based; conditions: Paecilomyces variotii; strain MYA-3630
[8] = system: A. fumigatus strain ATCC46645; experiment: Murine model of invasive pulmonary aspergillosis; assay type: in vivo, mouse
Description: Outbred wild-type CD-1 female mice at 20–24 g (Charles River Laboratory, Raleigh, NC, USA) were randomized and housed in autoclaved cages at ≤4 mice per cage with HEPA-filtered air and water. Mice were immunosuppressed by subcutaneous injection with triamcinolone acetonide (Kenalong-10, Bristol-Myer Squibb) at 40 mg/kg of body weight. Twenty-four hours after immune suppression, mice were intranasally inoculated with 2 × 10^6 live conidia (in 40 µL of sterile PBS) or PBS alone as a control. A. fumigatus strain ATCC46645 was grown on 1% GMM for 3 days at 37°C, conidia were collected in 0.01% Tween, and washed three times in sterile PBS. Immediately after fungal inoculation, mice were intraperitoneally (IP) injected with either vehicle (5% DMSO/10% PS80/25% HPBCDX 0.07% sodium acetate) or MBX-7591 at 10 mg/kg of body weight (5% DMSO/10% PS80/25% HPBCDX 0.07% sodium acetate). Mice were injected IP with a second dose of vehicle or MBX-7591 at 10 mg/kg of body weight 8 hours after the first dose of the drug. Mice were sacrificed 24 hours post-fungal challenge, lungs were excised from the chest cavity, rinsed in sterile PBS, and flash frozen for fungal burden analysis. Relative fungal burden was assessed through qPCR quantitation of A. fumigatus 18S rDNA as previously described ([38][–][40]).

[9] = system: Aspergillus fumigatus; experiment: Colony recovery after CLSI MIC testing (fungicidal test); assay type: cell-based; conditions: at MIC (2.453 μg/ml) and 2X MIC (4.906 μg/ml)
Description: Perhaps consistent with these lipid profiling data, transmission electron microscopy images of MBX-7591-treated cells reveal a loss of cellular membrane integrity, a large increase in the electron translucent cell wall, and a significant increase in electron density in the cytoplasm (Fig. S1B). These TEM images are consistent with cell death upon MBX-7591 treatment.
115 Supplementary Figure 1. MBX-7591 pre-treatment induces cell death.
116 A) Biofilms grown for 12 hours with MBX-7591 pre-treatment (PT) are more susceptible to
117 subsequent 6-hour voriconazole (VCZ) treatment. MBX-7591 PT + VCZ biofilms show higher
118 sytox staining and nuclear collapse indicative of increased cell membrane permeability and cell
119 death. B) TEM image of cross section of Aspergillus fumigatus hyphae from 24-hour biofilms
120 grown in vehicle control or 0.588 μg/ml MBX-7591. MBX-7591 induces changes in the cell wall,
121 increased vacuolization and increased cytosolic density (black arrows). C) MBX-7591 reduces
CLSI assay done as described in methods and incubated for 48 hours at
124 37°C, 5%CO2. Subsequently 100 µL of untreated control, ½ MIC, MIC and 2X MIC wells were
125 plated onto GMM and incubated at 37°C, 5%CO2 for 48h. Representative images of fungal
126 growth of 2 independent biological replicates shown.

[10] = system: Aspergillus niger; experiment: CLSI-based microbroth dilution MIC, spectrum of activity; assay type: cell-based
[11] = system: Mucor spp.; experiment: as above; assay type: cell-based; conditions: for MIC: Mucor
[12] = system: Histoplasma capsulatum; experiment: microbe, parasite or virus in culture; assay type: cell-based

## O=C(c1ccsc1)N1CCC(Cc2ccc(COc3ccncc3)cc2)CC1 [MBX-7591]
[1]
  C14:0 relative percentage of fatty acids: 0.19 ± 0.057
  C15:0 relative percentage of fatty acids: 0.59 ± 0.034
  C16:0 (palmitic acid) relative percentage of fatty acids: 23.30 ± 0.48
  C16:1n7 relative percentage of fatty acids: 0.68 ± 0.040
  C17a relative percentage of fatty acids: 0.15 ± 0.025
  C18:0 (stearic acid) relative percentage of fatty acids: 4.44 ± 0.95
  C18:1n7 relative percentage of fatty acids: 1.30 ± 0.18
  C18:1n9 (oleic acid) relative percentage of fatty acids: 20.48 ± 1.30
  C18:2n6 relative percentage of fatty acids: 48.87 ± 0.91
[2]; strain SC5314
  MIC: > 39.2 mg/L
[2]; strain SC5314, read-out: MIC UTHSC
  MIC: > 32 mg/L
[3]
  inhibition at 10 µM: 89%
[4]
  CC50: ≥ 100 µM
[5]
  CC50: > 100 µM
[6]; NIH: DI19-67, DI15-15, DI19-66, read-out: MIC UTHSC
  MIC: > 32 mg/L
[6]; apiospermum (7D7), prolificans (7D8), JI 2018 "typical" (14E6)
  MIC: > 39.2 mg/L
[7]
  MIC: > 32 mg/L
[8]; 10 mg/kg IP, two doses
  host toxicity in the IPA murine model: no host-associated toxicity
[8]; CD-1 mice, triamcinolone immunosuppressed, 10 mg/kg IP at 0 and 8 hours, lungs at 24 hours
  lung fungal burden vs vehicle control (18S rDNA qPCR): over threefold decrease in fungal burden
[9]
  colony formation after 48 hours of treatment of conidia: No colony-forming units were observed at or 2× the MIC
[10]; Aspergillus niger, strain AN1
  MIC: > 32 mg/L
[10]; strain AN2
  MIC UTHSC: > 32 mg/L
[11]; CBS277, strain CBS 277.49
  MIC: > 39.2 mg/L
[11]; strain DI15-131, read-out: MIC UTHSC
  MIC: > 32 mg/L
[11]; strain Mucor1
  MIC UTHSC: > 32 mg/L
[11]; strain Mucor2
  MIC UTHSC: > 32 mg/L
[12]; read-out: MIC UTHSC, strain DI14-269
  MIC: 4 mg/L (≈ 10.2 µM)
[12]; read-out: MIC UTHSC, strain DI14-284
  MIC: 1 mg/L (≈ 2.55 µM)
[12]; read-out: MIC UTHSC, strain DI17-143
  MIC: 0.5 mg/L (≈ 1.27 µM)

Reference: PMC11253624, “Unsaturated fatty acid perturbation combats emerging triazole antifungal resistance in the human fungal pathogen Aspergillus fumigatus” (mBio, 2024)
